Tests used:
[1] = tested on: DCTN1-RET fusion gene-expressing NIH/3T3 cells; assay: In vitro cell growth assay, 3-dimensional cell culture, intracellular ATP luminescence (CellTiter-Glo 2.0); settings: for GI50: Mus musculus, NIH3T3
[2] = biological target: T1, phosphorylated RET in DCTN1-RET fusion gene-expressing NIH/3T3 cells (Homo sapiens, UniProt P07949); assay: Inhibition of RET phosphorylation in DCTN1-RET fusion gene-expressing cells (western blotting); type: cell-based; settings: 1000, 100 and 10 nmol/L, 1 hour incubation, FIG. 9
T1 construct: expressed in transfected cells; the other entry of the earlier key: Dctn1 (O08788, Dynactin subunit 1)
Method: The expression of DCTN1-RET fusion protein in the obtained DCTN1-RET fusion gene-expressing NIH/3T3 cells was confirmed by western blotting. Specifically, the medium was removed from the culture flask, followed by washing with PBS once. Sample Diluent Concentrate 2 (R&D Systems) containing a phosphatase inhibitor (Roche) and a protease inhibitor (Roche) was added to the culture flask, and the cell lysate was collected with a scraper. From the collected cell lysate, a protein sample was obtained by centrifugation. The protein sample was subjected to protein determination, and the protein concentration was adjusted to a prescribed concentration. […] After the membrane was washed with TBS-T, the protein was detected using a SuperSignal West Dura Extended Duration Substrate (Thermo Fisher) with an Amersham Imager 600 lumino image analyzer (GE Healthcare). The molecular weight of the detected protein was confirmed with Precision Plus Protein Kaleidoscope Prestained Protein Standards (Bio-Rad). As shown in FIG. 4a) and 4b), endogenous RET (150 and 175 kDa) was not detected when the anti-pRET antibody or the anti-RET antibody was used. […] Additionally, as shown in FIG. 4c), endogenous DCTN1 was detected at around 150 kDa in the use of the anti-DCTN1 antibody. […]

DCTN1-RET fusion protein = assay: Inhibition of DCTN1-RET fusion protein expression by siRNA (western blotting); type: cell-based, human; settings: siRNA treatment overnight, DCTN1-RET fusion gene-expressing NIH/3T3 cells, FIG. 7
[3] = tested on: DCTN1-RET fusion gene-expressing NIH/3T3 cells; assay: Cell growth inhibitory effect of siRNA, 3-dimensional cell culture; type: cell-based, mouse; settings: 3-dimensional cell culture after siRNA treatment; no treatment 4.9 times, negative control siRNA 3.6 times; FIG. 8
Method: NIH/3T3 cells grow well under 2-dimensional cell culture conditions, but barely grow under 3-dimensional cell culture conditions. However, NIH/3T3 cells are also known to grow under 3-dimensional cell culture conditions when an oncogene is expressed in the cells. Thus, whether the DCTN1-RET fusion gene is an oncogene was confirmed using this character. DCTN1-RET fusion gene-expressing NIH/3T3 cells and NIH/3T3 cells were cultured at 37° C. in 5% CO2 in a 2-dimensional cell culture; and collected with trypsin, followed by counting the number of cells. To perform a 3-dimensional cell culture, a medium for 3-dimensional cell culture was prepared using an FCeM-series Preparation Kit (Nissan Chemical Industries, Ltd.), D-MEM (high glucose) (containing L-glutamine, phenol red, sodium pyruvate, and 1500 mg/L sodium hydrogen carbonate) (Wako), and newborn calf serum (NBCS) (Gibco). […] The day following seeding (day 1) and after 8 days from seeding (day 8), the luminescence level (counts per second: cps) was measured using a detection reagent for intracellular ATP luminescence (CellTiter-Glo 2.0 reagent, Promega) with a luminometer (EnSpire, PerkinElmer), and the result was determined to be the indicator for viable cell count. The cell growth rate was then calculated from the measurement result on day 1 and the measurement result on day 8 (N=3). […]
Subsequently, to confirm a cell growth inhibitory effect, cells were collected with trypsin from the wells without treatment and wells treated with siRNA, and the number of cells was counted. A 3-dimensional cell culture was then performed in the same manner as in Example 5, and on the day seeding was performed (day 0) and after 4 days from seeding (day 4), the number of viable cells was counted in the same manner as in Example 5. The growth rate of the cells was calculated from the measurement result on day 0 and the measurement result on day 4.

T1 sequence (P07949 with tags, fused parts or gaps with the stated changes): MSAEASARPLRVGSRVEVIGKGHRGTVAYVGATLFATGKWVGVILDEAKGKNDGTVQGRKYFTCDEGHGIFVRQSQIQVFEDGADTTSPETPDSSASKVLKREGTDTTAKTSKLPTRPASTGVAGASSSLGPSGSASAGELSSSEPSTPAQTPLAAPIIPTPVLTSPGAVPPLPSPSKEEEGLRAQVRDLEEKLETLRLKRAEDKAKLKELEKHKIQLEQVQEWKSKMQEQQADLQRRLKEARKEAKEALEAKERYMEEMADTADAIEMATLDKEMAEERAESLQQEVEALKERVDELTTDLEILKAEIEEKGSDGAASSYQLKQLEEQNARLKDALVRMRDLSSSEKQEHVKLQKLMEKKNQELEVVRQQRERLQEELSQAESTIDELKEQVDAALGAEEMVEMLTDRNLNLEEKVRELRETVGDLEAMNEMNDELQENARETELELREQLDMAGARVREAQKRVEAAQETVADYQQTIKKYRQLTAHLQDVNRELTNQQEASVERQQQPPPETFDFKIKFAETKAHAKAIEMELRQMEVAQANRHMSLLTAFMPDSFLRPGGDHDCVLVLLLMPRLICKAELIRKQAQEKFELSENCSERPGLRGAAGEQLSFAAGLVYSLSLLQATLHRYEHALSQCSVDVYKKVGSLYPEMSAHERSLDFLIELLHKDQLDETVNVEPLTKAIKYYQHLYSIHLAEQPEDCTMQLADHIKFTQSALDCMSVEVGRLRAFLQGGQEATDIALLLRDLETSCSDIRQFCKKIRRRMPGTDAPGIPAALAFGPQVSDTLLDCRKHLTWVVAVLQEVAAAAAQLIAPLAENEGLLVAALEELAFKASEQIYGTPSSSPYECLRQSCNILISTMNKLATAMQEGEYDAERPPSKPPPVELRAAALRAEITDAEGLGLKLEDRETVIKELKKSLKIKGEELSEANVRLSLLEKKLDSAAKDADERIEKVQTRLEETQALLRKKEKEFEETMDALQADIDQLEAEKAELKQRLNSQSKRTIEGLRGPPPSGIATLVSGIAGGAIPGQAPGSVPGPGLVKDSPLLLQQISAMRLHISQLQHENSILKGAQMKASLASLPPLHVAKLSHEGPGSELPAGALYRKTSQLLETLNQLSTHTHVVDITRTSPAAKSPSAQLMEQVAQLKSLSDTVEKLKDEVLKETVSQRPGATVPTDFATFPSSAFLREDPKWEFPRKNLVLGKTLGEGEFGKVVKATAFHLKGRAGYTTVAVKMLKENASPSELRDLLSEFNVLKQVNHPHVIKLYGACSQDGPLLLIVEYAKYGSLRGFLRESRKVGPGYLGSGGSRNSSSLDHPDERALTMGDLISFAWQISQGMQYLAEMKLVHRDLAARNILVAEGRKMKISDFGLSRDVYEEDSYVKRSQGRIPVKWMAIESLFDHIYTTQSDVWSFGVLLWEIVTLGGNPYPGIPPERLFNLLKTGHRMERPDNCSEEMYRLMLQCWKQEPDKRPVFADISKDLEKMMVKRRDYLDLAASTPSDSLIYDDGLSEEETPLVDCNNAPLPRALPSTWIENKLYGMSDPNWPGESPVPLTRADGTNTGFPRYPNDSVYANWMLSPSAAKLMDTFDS

Molecule	GI50 [1] [nM]	expression of the DCTN1-RET fusion protein (DCTN1-RET fusion protein)	growth: number of cells on day 4 relative to day 0 [3]	other results
CCc1cc2c(cc1N1CCC(N3CCOCC3)CC1)C(C)(C)c1[nH]c3cc(C#N)ccc3c1C2=O [Alectinib]	> 1000			
COc1cc2nccc(Oc3ccc(NC(=O)C4(C(=O)Nc5ccc(F)cc5)CC4)cc3)c2cc1OC [Cabozantinib]	91.1			
COCc1ccc(NC(=O)c2c(C#CCN3CCOCC3)n(C3(C)CC3)c3ncnc(N)c23)cc1 [Compound 6, 4-amino-N-[4-(methoxymethyl)phenyl]-7-(1-methylcyclopropyl)-6-(3-morpholinopro-1-pyn-1-yl)-7H-pyrrolo[2,3-d]pyrimidine-5-carboxamide]	3.6			
COc1cc2nccc(Oc3ccc(NC(=O)NC4CC4)c(Cl)c3)c2cc1C(N)=O [Lenvatinib]	50.3			phosphorylated RET levels [2]: notably decreased; growth of DCTN1-RET fusion gene-expressing NIH/3T3 cells ([1]; result in words, as shown in Table 7): inhibited the growth
COc1cc2c(Nc3ccc(Br)cc3F)ncnc2cc1OCC1CCN(C)CC1 [Vandetanib]	68.7			
CACAUGUCAUCAAAUUGUATT (CACAUGUCAUCAAAUUGUANN; listed as RNA, chemistry not given here) [RET siRNA1, siRNA targeting human RET]		inhibited	about 2.0 times	
CCACUGCUACCACAAGUUUTT (CCACUGCUACCACAAGUUUNN; listed as RNA, chemistry not given here) [RET siRNA3, siRNA targeting human RET]		not inhibited	3.7 times	
GGAUUGAAAACAAACUCUATT (GGAUUGAAAACAAACUCUANN; listed as RNA, chemistry not given here) [RET siRNA2, siRNA targeting human RET]		inhibited	~2.4 times	

— US12258376B2, “Fusion protein of DCTN1 protein with RET protein” (TAIHO PHARMACEUTICAL CO., LTD., priority 2017, dated 2025)
